Paper PMC3433414, “Oral Administration of the Pimelic Diphenylamide HDAC Inhibitor HDACi 4b Is Unsuitable for Chronic Inhibition of HDAC Activity in the CNS In Vivo” (PLoS ONE, 2012)
Read-outs that look alike come from different tables or passages of the source.

Experiment: Pharmacokinetics after a single SC or PO dose
Format: in vivo, mouse
Settings: for Tmax: read-out: Observed Tmax
Procedure: The pharmacokinetic parameters of 4b following dosing with either 5 mg/kg subcutaneous (sc) injection using the soluble formulation, or 4b per oral (po) by gavage (50 mg/kg in suspension) in mice plasma and whole brain homogenate are shown in Fig. 4 and Table 1. Triplicate dose formulation samples were retained and analyzed to ensure an accurate concentration of 4b was injected. The sc dose was calculated to be on average 84.3% of the 5 mg/kg target dose. Therefore, for PK analysis purposes, the dose level for this group was adjusted to 4.22 mg eq./kg based on the reported average dose formulation concentration and calculation parameters were adjusted accordingly. The po gavage dose was accurate at 50 mg/kg (within 104% of the nominal concentration of 10.0 mg/mL), and triplicate sampling from the vial (1 per strata; top, middle, and bottom) confirmed that the suspension dosed was homogeneous.
All dose formulation procedures were conducted under yellow lighting conditions to protect 4b from light. For the subcutaneous dose group, 2.504 mg 4b was weighed, and transferred into a formulation container. NMP (0.05 mL) was added and the contents were vortexed until 4b was completely dissolved. With continuous vortexing after each addition, PEG400 (0.45 mL), Solutol HS-15 (0.25 mL) and finally 1% Lutrol F68 in RODI water (1.75 mL) followed by sonication for 6 min. The formulation was filtered into a sterile serum vial using a 0.22 µm Millex GV PVDF filter. The resultant formulation was a clear colorless solution.
For the oral dose group, 4b was weighed (21.138 mg) and transferred to a formulation container. The prepared vehicle (0.5% CMC, 2.11 mL) was transferred into the formulation container, and the contents were stirred and sonicated for a total of 20 min. The resultant formulation was a white homogenous suspension.
Whole blood samples (225 µL each ∼90 µL plasma) were collected at each time point per animal into tubes containing K2EDTA. Samples were held on wet ice prior to centrifugation. Mice were bled twice; the first bleed was made via the submandibular facial vein, the second bleed was a terminal collection via cardiac puncture. […] The entire volume of the plasma sample was then transferred to individual tubes contained in a 96-well Matrix plate kept chilled in icy water through the entire process until storage at −70°C ±10°C. Collected plasma samples were stored at −70°C ±10°C until transferred to the analytical laboratory frozen on dry ice for bioanalysis.
The brain of each animal was collected following CO2 euthanasia and terminal bleeding. Each brain was rinsed with saline once removed from the body (to flush away any blood that may have been present), snap frozen in liquid nitrogen, and stored individually in 15 mL conical tubes at −70°C ±10°C.
Prior to extraction, acetonitrile: water (3∶1, v/v) was added to each tissue sample at a tissue: solvent ratio of 1∶3 (w/v) or 1∶2.536 (w/w), and homogenized using an OMNI tissue homogenizer. The actual volume of extraction buffer or organic solvent added to each tissue was recorded. Samples were kept chilled in icy water through the entire process until processed for 4b extraction. Immediately prior to extraction, tissue homogenates were thoroughly vortexed and aliquoted into 96-well plate(s). The entire process, from tissue homogenization to placing the samples in the tubes for 4b extraction, was conducted within 8 h.
primary stock solution was prepared at 1 mg eq./mL in DMSO. The matrix calibration standards were prepared at 1, 2, 5, 10, 50, 250, 1000, 2500, 5000 and 10000 ng eq./mL in mouse plasma for plasma, and 0.25, 0.5, 1.25, 2.5, 12.5, 62.5, 250, 625, 1250, 2500 ng eq./mL in tissue homogenate for tissue analysis. Plasma samples were quantified against an external calibration curve generated in control plasma from male C57BL/6NCRL mice. Tissue samples were quantified against an external calibration standard curve generated in control brain tissue from male C57BL/6NCRL mice. […]

[1] = C57BL/6NCRL, mouse, brain/plasma, po 50 mg eq./kg, mean (standard deviation), N = 3, read-out: B:P
[2] = C57BL/6NCRL, mouse, brain/plasma, sc 4.22 mg eq./kg, mean (standard deviation), N = 3, read-out: B:P

Nc1ccccc1NC(=O)CCCCCC(=O)Nc1ccccc1 [Compound 4b]
brain concentration in the acute sc pharmacodynamic trial, fold higher than by oral dosing (150 mg/kg): ~65 fold | AUC(0-inf) (C57BL/6NCRL, mouse, 4.22 mg/kg, mice, SC 4.22 mg eq./kg, plasma): 1.63 µM·h | half-life (C57BL/6NCRL, mouse, 4.22 mg/kg, mice, SC 4.22 mg eq./kg, plasma, read-out: T1/2 (converted)): 39.6 min | AUC(0-inf) (C57BL/6NCRL, mouse, 50 mg/kg, mice, PO 50 mg eq./kg, brain): 0.129 µM·h | half-life (C57BL/6NCRL, mouse, 50 mg/kg, mice, PO 50 mg eq./kg, brain, read-out: T1/2 (converted)): 182 min | AUC(0-inf) (C57BL/6NCRL, mouse, 50 mg/kg, mice, PO 50 mg eq./kg, plasma): 1.08 µM·h | half-life (C57BL/6NCRL, mouse, 50 mg/kg, mice, PO 50 mg eq./kg, plasma, read-out: T1/2 (converted)): 166 min | Cmax (C57BL/6NCRL, mouse, brain, po, 50 mg/kg, mice, PO 50 mg eq./kg, brain, read-out: Observed Cmax): 24 nM | Tmax (C57BL/6NCRL, mouse, brain, po, 50 mg/kg, mice, PO 50 mg eq./kg, brain): 60 min | Cmax (C57BL/6NCRL, mouse, brain, sc, 4.22 mg/kg, mice, SC 4.22 mg eq./kg, brain, read-out: Observed Cmax): 134 nM | Tmax (C57BL/6NCRL, mouse, brain, sc, 4.22 mg/kg, mice, SC 4.22 mg eq./kg, brain): 30 min | Kp at 0.5 hr [1]: 0.05 | Kp at 1 hr [1]: 0.08 | Kp at 8 hr (C57BL/6NCRL, mouse, brain/plasma, po 50 mg eq./kg, 8 hr, mean (standard deviation), N = 3, read-out: B:P): 0.2 | Kp at 0.5 hr [2]: 0.09 | Kp at 1 hr [2]: 0.06 | AUC (C57BL/6NCRL, mouse, plasma, 50 mg/kg, mice, po 50 mg eq/kg): 1.08 µM·h | Cmax (C57BL/6NCRL, mouse, plasma, po, 50 mg/kg, mice, PO 50 mg eq./kg, plasma, read-out: Observed Cmax): 1130 nM | Tmax (C57BL/6NCRL, mouse, plasma, po, 50 mg/kg, mice, PO 50 mg eq./kg, plasma): ≤ 30 min | Cmax (C57BL/6NCRL, mouse, plasma, po, 50 mg/kg, mice, po 50 mg eq/kg, read-out: plasma Cmax): 1300 nM | half-life (C57BL/6NCRL, mouse, plasma, sc, 4.22 mg eq./kg, after subcutaneous dosing, read-out: plasma half-life): ~40 min | Cmax (C57BL/6NCRL, mouse, plasma, sc, 4.22 mg/kg, mice, SC 4.22 mg eq./kg, plasma, read-out: Observed Cmax): 1340 nM | Tmax (C57BL/6NCRL, mouse, plasma, sc, 4.22 mg/kg, mice, SC 4.22 mg eq./kg, plasma): ≤ 30 min | Cmax (C57BL/6NCRL, mouse, plasma, sc, 4.22 mg/kg, mice, sc 4.22 mg/kg, read-out: plasma Cmax): 1340 nM | AUC (C57BL/6NCRL, mouse, plasma, mice, sc 4.22 mg/kg): 1.63 µM·h | estimated brain Cmax (extrapolated to 150 mg/kg s.c., assuming linear kinetics): 4000 to 5000 nM | estimated brain Cmax (extrapolated to oral bolus of 150 mg/kg): ~72 nM | Cmax (mice, PO 50 mg eq./kg, brain, read-out: Observed Cmax): 24.3 nM | brain concentration (below LLQ) (po 50 mg/kg, after 8 h): < 2.3 nM eq. | plasma concentration (below LLQ) (po 50 mg/kg, after 8 h): < 3.07 nM eq. | plasma concentration (below LLQ) (sc 4.22 mg/kg eq, after 4 h): < 3.07 nM eq. | brain concentration (below LLQ) (sc 4.22 mg/kg eq, after 8 h): < 2.3 nM eq.
